According to patent US11807625B2, “Capsid inhibitors for the prevention of HIV” (Gilead Sciences, Inc., priority 2019, dated 2023):

Assay: PK of compound of Formula (Ia) after single subcutaneous dose of solution formulations in beagle dogs
Format: in vivo
Conditions: male, beagle, dog, plasma, sc, 12 mg/kg, beagle dogs, SC 12 mg/kg
Protocol: Formulations containing the compound of Formula (Ia), or a pharmaceutically acceptable salt thereof, were prepared as solutions and optionally administered subcutaneously or intramuscularly to rats, rabbits, and/or dogs.
A solution of about 400 mg/mL of the compound of Formula (Ia) having 17.00 w/w % water, 36.40 w/w % PEG 300, 35.20 w/w % of a sodium salt of a compound of Formula (Ia), 5.00 w/w % ethanol, and 6.40 w/w % poloxamer 188 was prepared. The solution was administered subcutaneously to male beagle dogs at a dose level of about 12 mg/kg and male Wistar Han rats at a dose level of about 50 mg/kg. The pharmacokinetic profiles were determined, and the results for dogs are summarized in Table and Table, while the results for rats are summarized in Table and Table below.
A solution of about 500 mg/mL of the compound of Formula (Ia) having 14.06 w/w % water, 30.12 w/w % PEG 300, […] of a sodium salt of a compound of Formula (Ia), 5.00 w/w % ethanol, and 6.40 w/w % poloxamer 188 was prepared. The solution was administered subcutaneously to male beagle dogs at a dose level of about 12 mg/kg and male Wistar Han rats at a dose level of about 50 mg/kg. The pharmacokinetic profiles were determined, and the results for dogs are summarized in Table and Table, while the results for rats are summarized in Table and Table below.
A solution of about 300 mg/mL of the compound of Formula (Ia) having 23.33 w/w % water, 48.99 w/w % PEG 300, 26.47 w/w % of a sodium salt of a compound of Formula (Ia), and 1.21 w/w % poloxamer 188 was prepared. The solution was administered subcutaneously to male beagle dogs at a dose level of about 6 mg/kg and male Wistar Han rats at a dose level of about 50 mg/kg. The pharmacokinetic profiles were determined, and the results for dogs are summarized in Table and Table, while the results for rats are summarized in Table and Table below.
A solution of about 400 mg/mL of the compound of Formula (Ia) having 18.80 w/w % water, 40.25 w/w % PEG 300, 34.38 w/w % of a sodium salt of a compound of Formula (Ia), 5.00 w/w % ethanol, and 1.57 w/w % poloxamer 188 was prepared. The solution was administered subcutaneously to male beagle dogs at a dose level of about 12 mg/kg and male Wistar Han rats at a dose level of about 50 mg/kg. The pharmacokinetic profiles were determined, and the results for dogs are summarized in Table and Table, while the results for rats are summarized in Table and Table below.
A solution of about 500 mg/mL of the compound of Formula (Ia) having 16.29 w/w % water, 34.88 w/w % PEG 300, 41.92 w/w % of a sodium salt of a compound of Formula (Ia), 5.00 w/w % ethanol, and 1.91 w/w % poloxamer 188 was prepared. The solution was administered subcutaneously to male beagle dogs at a dose level of about 12 mg/kg and male Wistar Han rats at a dose level of about 50 mg/kg. The pharmacokinetic profiles were determined, and the results for dogs are summarized in Table and Table, while the results for rats are summarized in Table and Table below.
A solution of about 400 mg/mL of the compound of Formula (Ia) having 20.90 w/w % water, 44.72 w/w % PEG 300, and 34.38 w/w % of a sodium salt of a compound of Formula (Ia) was prepared. The solution was administered subcutaneously to male beagle dogs at a dose level of about 12 mg/kg and male Wistar Han rats at a dose level of about 50 mg/kg. The pharmacokinetic profiles were determined, and the results for dogs are summarized in Table and Table, while the results for rats are summarized in Table and Table below.
A solution of about 400 mg/mL of the compound of Formula (Ia) having 19.90 w/w % water, 42.59 w/w % PEG 300, 34.38 w/w % of a sodium salt of a compound of Formula (Ia), and 3.13 w/w % poloxamer 188 was prepared. The solution was administered subcutaneously to male beagle dogs at a dose level of about 12 mg/kg and male Wistar Han rats at a dose level of about 50 mg/kg. […]

[1] = 400 mg/mL solution W (5.00% ethanol, 1.57% poloxamer 188), Mean n = 3
[2] = 400 mg/mL solution W (5.00% ethanol, 1.57% poloxamer 188), animals #1-#3
[3] = 400 mg/mL solution Y (water, PEG 300), Mean n = 3
[4] = 400 mg/mL solution Y (water, PEG 300), animals #1-#3
[5] = 400 mg/mL solution Z (3.13% poloxamer 188), animals #1-#3
[6] = 400 mg/mL solution Z (3.13% poloxamer 188), Mean n = 3
[7] = 500 mg/mL solution X (5.00% ethanol, 1.91% poloxamer 188), Mean n = 3
[8] = 500 mg/mL solution X (5.00% ethanol, 1.91% poloxamer 188), animals #1-#3

CC(C)(C#Cc1ccc(-c2ccc(Cl)c3c(NS(C)(=O)=O)nn(CC(F)(F)F)c23)c([C@H](Cc2cc(F)cc(F)c2)NC(=O)Cn2nc(C(F)(F)F)c3c2C(F)(F)[C@@H]2C[C@H]32)n1)S(C)(=O)=O [compound of Formula (Ia)]
concentration at 96 h [1]: 43.5 nM | concentration at 168 h [1]: 40.3 nM | concentration at 336 h [1]: 133 nM | concentration at 504 h [1]: 121 nM | concentration at 672 h [1]: 145 nM | concentration at 840 h [1]: 82.4 nM | concentration at 1008 h [1]: 71.7 nM | concentration at 1008 h [2]: 80.7 nM | concentration at 1344 h [1]: 80.7 nM | concentration at 1344 h [2]: 72.3 nM | concentration at 1680 h [1]: 34.9 nM | concentration at 1680 h [2]: 28.8 nM | concentration at 2016 h [1]: 35.3 nM | concentration at 2016 h [2]: 25.8 nM | concentration at 2352 h [1]: 21.9 nM | concentration at 2352 h [2]: 16.8 nM | concentration at 2688 h [1]: 13.3 nM | concentration at 2688 h [2]: 9.87 nM | concentration at 3024 h [1]: 11.4 nM | concentration at 3024 h [2]: 10.5 nM | concentration at 3360 h [1]: 7.4 nM | concentration at 3360 h [2]: 6.7 nM | concentration at 3696 h [1]: 4.7 nM | concentration at 4032 h (400 mg/mL solution W (5.00% ethanol, 1.57% poloxamer 188), 4032 h, Mean n = 3): 5.6 nM | concentration at 4368 h (400 mg/mL solution W (5.00% ethanol, 1.57% poloxamer 188), 4368 h, Mean n = 3): 5.7 nM | concentration at 1 h [3]: 9.61 nM | concentration at 3 h [3]: 17.9 nM | concentration at 8 h [3]: 33.9 nM | concentration at 24 h [3]: 69.9 nM | concentration at 48 h [3]: 77.1 nM | concentration at 72 h [3]: 58.5 nM | concentration at 72 h [4]: 73.6 nM | concentration at 96 h [3]: 58.4 nM | concentration at 96 h [4]: 73.8 nM | concentration at 168 h [3]: 47.8 nM | concentration at 168 h [4]: 41.2 nM | concentration at 336 h [3]: 164 nM | concentration at 336 h [4]: 163 nM | concentration at 504 h [3]: 248 nM | concentration at 504 h [4]: 247 nM | concentration at 672 h [3]: 205 nM | concentration at 672 h [4]: 229 nM | concentration at 840 h [3]: 123 nM | concentration at 840 h [4]: 136 nM | concentration at 1008 h [3]: 95.8 nM | concentration at 1008 h [4]: 119 nM | concentration at 1334 h [3]: 58.2 nM | concentration at 1334 h [4]: 70.5 nM | concentration at 1680 h [3]: 28.4 nM | concentration at 1680 h [4]: 27.2 nM | concentration at 2016 h [3]: 18.6 nM | concentration at 2016 h [4]: 17.7 nM | concentration at 2352 h [3]: 15.4 nM | concentration at 2352 h [4]: 18.1 nM | concentration at 2688 h [3]: 9.47 nM | concentration at 2688 h [4]: 8.23 nM | concentration at 3024 h [3]: 6.15 nM | concentration at 3024 h [4]: 5.55 nM | concentration at 3360 h [3]: 5.11 nM | concentration at 3696 h [3]: 3.76 nM | concentration at 1 h (400 mg/mL solution Z (3.13% poloxamer 188), Mean): 1.58 nM | concentration at 1 h [5]: 1.66 nM | concentration at 3 h [6]: 5.83 nM | concentration at 8 h [6]: 34 nM | concentration at 24 h [6]: 80.5 nM | concentration at 48 h [6]: 61.6 nM | concentration at 72 h [6]: 65.1 nM | concentration at 72 h [5]: 89.8 nM | concentration at 96 h [6]: 70.6 nM | concentration at 168 h [6]: 60.6 nM | concentration at 336 h [6]: 172 nM | concentration at 504 h [6]: 228 nM | concentration at 504 h [5]: 301 nM | concentration at 672 h [6]: 117 nM | concentration at 672 h [5]: 144 nM | concentration at 840 h [6]: 95.7 nM | concentration at 840 h [5]: 107 nM | concentration at 1008 h [6]: 79.9 nM | concentration at 1008 h [5]: 93.3 nM | concentration at 1334 h [6]: 50.2 nM | concentration at 1334 h [5]: 51.6 nM | concentration at 1680 h [6]: 24.2 nM | concentration at 2016 h [6]: 15.2 nM | concentration at 2352 h [6]: 8.85 nM | concentration at 2688 h [6]: 6.06 nM | concentration at 3024 h [6]: 5.61 nM | concentration at 3024 h [5]: 3.65 nM | concentration at 3360 h [6]: 3.41 nM | concentration at 3696 h [6]: 1.75 nM | concentration at 1 h [7]: 12.1 nM | concentration at 3 h [7]: 15.2 nM | concentration at 3 h [8]: 19.4 nM | concentration at 8 h [7]: 26.1 nM | concentration at 8 h [8]: 22.3 nM
